# Data taken from US20240318142A1, “METHOD FOR PRODUCING RENAL INTERSTITIAL PROGENITOR CELLS, ERYTHROPOIETIN-PRODUCING CELLS, AND METHOD FOR PRODUCING RENIN-PRODUCING CELLS” (KYOTO UNIVERSITY, priority 2021, published 2024).
# B1: BMP7: bone morphogenetic protein 7 (protein, UniProt P18075 293-431, looked up)
# Bone morphogenetic protein 7: STGSKQRSQNRSKTPKNQEALRMANVAENSSSDQRQACKKHELYVSFRDLGWQDWIIAPEGYAAYYCEGECAFPLNSYMNATNHAIVQTLVHFINPETVPKPCCAPTQLNAISVLYFDDSSNVILKKYRNMVVRACGCH
# B2: BMP5: bone morphogenetic protein 5 (protein, UniProt P22003 317-454, looked up)
# Bone morphogenetic protein 5: AANKRKNQNRNKSSSHQDSSRMSSVGDYNTSEQKQACKKHELYVSFRDLGWQDWIIAPEGYAAFYCDGECSFPLNAHMNATNHAIVQTLVHLMFPDHVPKPCCAPTKLNAISVLYFDDSSNVILKKYRNMVVRSCGCH
# B3: BMP4: bone morphogenetic protein 4 (protein, UniProt P12644 293-408, looked up)
# Bone morphogenetic protein 4: SPKHHSQRARKKNKNCRRHSLYVDFSDVGWNDWIVAPPGYQAFYCHGDCPFPLADHLNSTNHAIVQTLVNSVNSSIPKACCVPTELSAISMLYLDEYDKVVLKNYQEMVVEGCGCR
# Experiments:
# [1] = test system: hiPSC-derived IPCs; assay: qRT-PCR of EPO after further differentiation induction from IPCs (renal EPO-producing cells); format: cell-based, human; settings: for EPO expression compared to the combination of SB431542 and SAG: combination of A83-01 and SAG in CFR medium, FIG. 10; for effect on the SAG-induced EPO up-regulation: modulator together with SAG 500 nM, CHIR99021, RA, and A83-01; for effect on the SAG-induced EPO up-regulation / EPO expression: FIG. 15; for EPO expression: SHH signal modulators under induction conditions using CHIR99021, RA, and A83-01, Days 11 to 14; for expression of EPO: combination of SB431542 and SAG (500 nM), 5% O2, FG-4592 and RA present, FIG. 9
# Experimental: (§1) FIG. 9 is a diagram illustrating results of qRT-PCR analysis of EPO and renin carried out on Days 11 to 14, that is, after obtaining renal interstitial progenitor cells, for comparison of the effects of combinations of candidate differentiation induction factors for renal EPO-producing cells or renin-producing cells. The SAG concentration was 500 nM, and the concentrations of SB and CHIR are expressed in the unit of μM.
# (§2) FIG. 10 is a diagram illustrating results of qRT-PCR analysis of EPO and renin on Days 11 to 14, that is, after obtaining renal interstitial progenitor cells, for comparison of the effects of combinations of various candidate differentiation induction factors. The SAG concentration was 500 nM; the concentrations of SB and A83 are expressed in the unit of μM; LDN is expressed in the unit of nM; and TGFβ1, BMP7, and activin (ACT) are expressed in the unit of ng/mL.
# FIG. 15 is a diagram illustrating results of qRT-PCR analysis of EPO carried out on Days 11 to 14, that is, after obtaining renal interstitial progenitor cells, for comparison of the effects of various Sonic Hedgehog (SHH) signal modulators under induction conditions using CHIR99021, RA, and A83-01. So, Vi, Pu, Sa, and Ga represent sonidegib, vismodegib, purmophamine, SANT-1, and GANT61, respectively, and their concentrations are expressed in the unit of μM. The concentration of SAG was 500 nM, and the concentration of SHH was 100 ng/mL.
# (§3) First, using the IPCs on Day 11, culture was performed under 5% O2 hypoxic conditions in the presence of FG-4592 (N-[(4-hydroxy-1-methyl-7-phenoxy-3-isoquinolinyl)carbonyl]-glycine) and RA with addition of various factors. By measuring the expression of EPO and renin, screening for induction factors for renin-producing cells and renal EPO-producing cells was carried out.
# Subsequently, the effects of various SHH signal modulators in a system for differentiation induction from IPCs to EPO-producing cells were investigated (FIG. 15). Several SMO antagonists (sonidegib, vismodegib, and SANT-1) and agonists (SAG and purmophamine), a GLI1 inhibitor (GANT61), and human SHH protein were tested.
# [2] = test system: hiPSC-derived IPCs; assay: qRT-PCR of renin and mesangial/JG cell markers after further differentiation induction from IPCs (renin-producing cells); format: cell-based, human
# Experimental: as §1, §2
# FIG. 11 is a diagram illustrating results of qRT-PCR analysis of renin on Days 11 to 14, that is, after obtaining renal interstitial progenitor cells, for comparison of the effects of various factors. In the presence of CHIR99021, RA, and FG-4592 (CFR), the effects of BMP4, BMP5, and BMP7 (10 ng/mL or 100 ng/mL) were investigated under conditions with or without treatment by SB431542 (1 μM). SB is expressed in the unit of […], and TGFβ1 and ACT are expressed in the unit of ng/mL.
# FIG. 12 is a diagram illustrating results of qRT-PCR analysis of marker expression for the mesangial cell lineage (GATA3, renin, and GJA5) and IPCs (FOXD1) at Hour 0 and Hour 96 after treatment with CFR+BMP7+SB. iPSC represents the control.
# FIG. 13 is a diagram illustrating results of qRT-PCR analysis of cells that were subjected to treatment under hypoxic (CFR+B7+SB in 5% O2) or normal oxygen (CFR+B7+SB minus FG-4592 in 20% O2) conditions on Days 11 to 15, that is, after obtaining renal interstitial progenitor cells, which analysis was carried out for markers for JG (renin and GJA4) and mesangial cells (EBF1, GJA5, ITGA8, and GATA3). * indicates p<0.05; ** indicates p<0.01; and NS indicates “no significant difference” (Student's t-test).
# FIG. 14 is a diagram illustrating results of qRT-PCR analysis of cells that were subjected to treatment with VEGF (100 ng/mL) or axitinib (3 μM) and also to treatment under hypoxic conditions (CFR+B7+SB in 5% O2) or normal conditions (CFR+B7+SB minus FG-4592 in 20% O2) on Days 11 to 15, that is, after obtaining renal interstitial progenitor cells, which analysis was carried out for markers for JG (renin and GJA4), mesangial cells (EBF1, GJA5, ITGA8, and GATA3), and VEGFA.
# as §3
# [3] = test system: PPS cells obtained by differentiation induction from human iPS cells; assay: Induction of FOXD1-positive renal interstitial progenitor cells (IPC) from PPS cells, flow cytometric analysis (FOXD1 and OSR1) on Day 11; format: cell-based; settings: for induction of FOXD1-positive cells: 5 days of treatment (Days 6 to 11) with the combination CHIR99021 1 μM, SB431542 10 μM and RA 100 nM, FIG. 3; for induction efficiency for OSR1-positive FOXD1-positive cells: addition of IL-1β (10 ng/mL) and SAG (500 nM) together on Days 6 to 8, FIG. 6
# Experimental: FIG. 3 is a diagram illustrating results of flow cytometric analysis (FOXD1 and OSR1), carried out on Day 11, of cells that were treated with various combinations of factors during the differentiation induction period of Days 6 to 11 (the period corresponding to “Screening” in FIG. 1). The following concentrations were employed: 1 μM CHIR99021 (CHIR), 10 μM SB431542 (SB), 100 nM retinoic acid (RA), 200 ng/mL FGF9, and 25 ng/mL Noggin.
# FIG. 5 is a diagram illustrating results of flow cytometric analysis (FOXD1 and OSR1), carried out on Day 11, of cells that were treated or not treated with Smoothened Agonist (SAG) (concentration, 500 nM) during the differentiation induction period of Days 6 to 8. ** indicates p<0.01 (Student's t-test), and NS indicates “no significant difference”.
# FIG. 6 is a diagram illustrating results of flow cytometric analysis (FOXD1 and OSR1), carried out on Day 11, of cells that were treated with various factors during the differentiation induction period of Days 6 to 8. The following concentrations were employed: 1 μM CHIR, 10% Wnt3a, 200 ng/mLRSPO1 (R-Spondin-1), 500 nM SAG, 10 ng/mL IL-1β, 50 ng/mL Estradiol, and 10 ng/mL TGFβ1.
# Human iPS cells (hiPSCs) (17K6:OSR1-GFP/FOXD1-tdTomato double knock-in hiPSCs) were first subjected to enzyme treatment for 5 minutes using a 1:1 mixture of TrypLE Select Enzyme (Thermo Fisher Scientific) and 0.5 mM EDTA/PBS, and then washed with PBS(−). Thereafter, the cells were detached using a cell scraper, and then dissociated into single cells by gentle pipetting. One day before the start of differentiation, the cells were plated into a 24-well plate (CORNING) at a density of 1.3×10^4 cells/cm^2 together with 0.5 mL of Stem Fit AK02N (Ajinomoto Healthy Supply Co., Inc.) supplemented with 10 μM Y-27632 and 2.4 μL/mL iMatrix-511 (Matrixome). Twenty-four hours later (Day 0), 5 μM CHIR99021 (Wako), 10 nM RA (Sigma), 1 ng/mL BMP4 (Peprotech), and 100 ng/mL bFGF (Wako) were added to a serum-free differentiation medium comprising DMEM/F12 Glutamax (Thermo Fisher Scientific), B27 supplement minus vitamin A (Thermo Fisher Scientific), and 0.5× penicillin/streptomycin (hereinafter referred to as basal medium), and then culture was started. Twenty-four hours thereafter (Day 1), culture was performed with a basal medium supplemented with 5 μM CHIR99021, 100 ng/mL bFGF, and 1 ng/mL BMP7 (R&D Systems). On Day 2, the medium was switched to a basal medium supplemented with 5 μM CHIR99021, 1 ng/mL BMP7, and 10 μM A83-01 (Wako). On Day 3, the medium was switched to a basal medium supplemented with 5 μM CHIR99021, 30 ng/mL bFGF, 10 ng/mL activin A (R&D Systems), and 30 μM Y-27632 (Wako). On Day 4, the cells were washed with PBS(−), treated with Accumax (Innovative Cell Technologies), and then dissociated into single cells by gentle pipetting, followed by plating into a 24-well plate (CORNING) at a density of 1.05×10^5 cells/cm^2 (2D culture) or plating into a 96-well low-cell-adhesive plate (Thermo Fisher Scientific) at a density of 2.0×10^4 cells/cm^2 (3D culture). Culture was performed for 48 hours using a basal medium supplemented with 5 μM CHIR99021, 30 ng/mL bFGF, 10 ng/mL activin A, and 30 μM Y-27632 (in addition, 1.2 μL/well iMatrix-511 or a laminin-E8 fragment library in the case of 2D culture). By this, HOXC10- and CITED1-positive PPS cells were induced.
# For the PPS cells on Day 6 of the culture protocol in FIG. 1, several differentiation induction conditions were tested by combining various factors. […]
# [4] = combination of CHIR99021 and SB431542, absence of SAG, 5% O2, FG-4592 and RA present, FIG. 9
# [5] = BMP (10 or 100 ng/mL) added to CFR medium in the presence of SB431542 (1 μM), FIG. 11
molecule,measurement,setting,value
Cc1cccc(-c2nn(C(=S)Nc3ccccc3)cc2-c2ccnc3ccccc23)n1 [A83-01],EPO expression compared to the combination of SB431542 and SAG,[1],higher EPO expression
Cc1c[nH]c(-c2cnc(NCCNc3ccc(C#N)cn3)nc2-c2ccc(Cl)cc2Cl)n1 [CHIR99021],expression of renin,[2]; [4],increase the expression of renin
same,induction of FOXD1-positive cells,[3],could be induced
CN(C)c1ccccc1CN1CCCN(Cc2ccccc2N(C)C)C1c1ccncc1 [GANT61],effect on the SAG-induced EPO up-regulation,[1],did not reduce the effect of SAG
CNC1CCC(N(Cc2cccc(-c3ccncc3)c2)C(=O)c2sc3ccccc3c2Cl)CC1 (stereo not shown) [SAG],EPO expression,[1],up-regulation of EPO
same,EPO expression compared to the combination of SB431542 and SAG,[1],higher EPO expression
same,expression of EPO,[1],increase the expression of EPO
same,induction efficiency for FOXD1-positive cells,"[3]; SAG 500 nM added on Days 6 to 8 to CHIR99021+SB431542+RA, FIG. 5",further increased
same,induction efficiency for OSR1-positive FOXD1-positive cells,[3],increases
Cc1nn(-c2ccccc2)c(C)c1/C=N/N1CCN(Cc2ccccc2)CC1 [SANT-1],effect on the SAG-induced EPO up-regulation,[1],reduced the effect of SAG
NC(=O)c1ccc(-c2nc(-c3ccc4c(c3)OCO4)c(-c3ccccn3)[nH]2)cc1 [SB431542],expression of EPO,[1],increase the expression of EPO
same,expression of renin,[2]; [4],increase the expression of renin
same,induction of FOXD1-positive cells,[3],could be induced
"c1ccc2c(Oc3nc(Nc4ccc(N5CCOCC5)cc4)c4ncn(C5CCCCC5)c4n3)cccc2c1 [purmophamine, 9-cyclohexyl-N-[4-(4-morpholinyl)phenyl]-2-(1-naphthalenyloxy)-9H-purine-6-amine]",EPO expression,[1],up-regulation of EPO
Cc1c(C(=O)Nc2ccc(N3C[C@@H](C)O[C@@H](C)C3)nc2)cccc1-c1ccc(OC(F)(F)F)cc1 [sonidegib],effect on the SAG-induced EPO up-regulation,[1],reduced the effect of SAG
CS(=O)(=O)c1ccc(C(=O)Nc2ccc(Cl)c(-c3ccccn3)c2)c(Cl)c1 [vismodegib],effect on the SAG-induced EPO up-regulation,[1],reduced the effect of SAG
"IL-1β: interleukin-1β, preferably human IL-1β protein",induction efficiency for OSR1-positive FOXD1-positive cells,[3],increases
VEGF,expression of markers for juxtaglomerular (JG) cells and mesangial cells,"[2]; VEGF 100 ng/mL added to CFR+B7+SB, Days 11 to 15, FIG. 14",increases
B1,expression of renin,[2]; [5],high expression of renin
same,expression of renin,"[2]; added to CFR medium (CHIR99021, FG-4592, RA), absence of SAG, FIG. 10",positively affected
B2,expression of renin,[2]; [5],high expression of renin
B3,expression of renin,[2]; [5],high expression of renin
